Data reported in patent US10836732B2, “Compounds for combating arthropods” (priority 2013, dated 2020).

What was measured:
[1] = logP by HPLC on reversed-phase column (C18), EEC Directive 79/831 Annex V.A8; type: physicochemical
Ctenocephalides felis [2] = assay: Ctenocephalides felis - oral test; type: in vivo; conditions: 100 ppm in citrated cattle blood, adult cat fleas, after 2 days
Method: (§1) Solvent: dimethyl sulphoxide
For the purpose of producing an appropriate active ingredient formulation, 10 mg of active ingredient are mixed with 0.5 ml of dimethyl sulphoxide. Dilution with citrated cattle blood gives the desired concentration.
About 20 unfed adult cat fleas (Ctenocephalides felis) are placed into a chamber which is closed at the top and bottom with gauze. A metal cylinder whose bottom end is closed with parafilm is placed onto the chamber. The cylinder contains the blood/active ingredient preparation, which can be imbibed by the fleas through the parafilm membrane.
After 2 days, the kill in % is determined 100% means that all of the fleas have been killed; 0% means that none of the fleas have been killed.

Boophilus microplus = Boophilus microplus - injection test; type: in vivo; conditions: 20 μg/animal, injected into engorged adult female cattle ticks, after 7 days
Method: as §1
To produce an appropriate active ingredient formulation, 10 mg of active ingredient are mixed with 0.5 ml of solvent and the concentrate is diluted with solvent to the desired concentration.
1 μl of the active ingredient solution is injected into the abdomen of 5 engorged adult female cattle ticks (Boophilus microplus). The animals are transferred into dishes and kept in a climate-controlled room.
(§2) Efficacy is assessed after 7 days by laying of fertile eggs. Eggs which are not visibly fertile are stored in a climate-controlled cabinet until the larvae hatch after about 42 days. An efficacy of 100% means that none of the ticks has laid any fertile eggs; 0% means that all the eggs are fertile.

Lucilia cuprina = Lucilia cuprina - test; type: in vivo; conditions: 100 ppm, L1 larvae, after 2 days
Method: as §1
(§3) To produce an appropriate active ingredient formulation, 10 mg of active ingredient are mixed with 0.5 ml of dimethyl sulphoxide, and the concentrate is diluted with water to the desired concentration.
About 20 L1 larvae of the Australian sheep blowfly (Lucilia cuprina) are transferred into a test vessel containing minced horsemeat and the active ingredient preparation of the desired concentration.
After 2 days, the kill in % is determined 100% means that all the larvae have been killed; 0% means that none of the larvae have been killed.

Spodoptera frugiperda = Spodoptera frugiperda - spray test; type: in vivo; conditions: maize leaf discs, after 7 days
Method: (§4) Solvent: 78.0 parts by weight of acetone
(§5) • 1.5 parts by weight of dimethylformamide Emulsifier: alkylaryl polyglycol ether
(§6) To produce an appropriate active ingredient formulation, 1 part by weight of active ingredient is dissolved using the specified parts by weight of solvent and made up with water containing an emulsifier concentration of 1000 ppm until the desired concentration is attained. To produce further test concentrations, the preparation is diluted with emulsifier-containing water.
Leaf discs of maize (Zea mays) are sprayed with an active ingredient formulation of the desired concentration and, after drying, populated with caterpillars of the armyworm (Spodoptera frugiperda).
After 7 days, efficacy in % is determined. 100% means that all the caterpillars have been killed; 0% means that no caterpillars have been killed.

Phaedon cochleariae = Phaedon cochleariae - spray test; type: in vivo; conditions: Chinese cabbage leaf discs, after 7 days
Method: as §4, §5, §6
Discs of Chinese cabbage leaves (Brassica pekinensis) are sprayed with an active ingredient formulation of the desired concentration and, after drying, populated with larvae of the mustard beetle (Phaedon cochleariae).
After 7 days, efficacy in % is determined 100% means that all the beetle larvae have been killed; 0% means that no beetle larvae have been killed.

Musca domestica = Musca domestica - test; type: in vivo; conditions: 100 ppm, adult houseflies, after 2 days
Method: as §1, §3
Vessels containing a sponge treated with sugar solution and the active ingredient formulation of the desired concentration are populated with 10 adult houseflies (Musca domestica).
After 2 days, the kill in % is determined 100% means that all of the flies have been killed; 0% means that none of the flies have been killed.

Myzus persicae = Myzus persicae - spray test; type: in vivo; conditions: 500 g/ha, Chinese cabbage leaf discs, after 6 days
Method: Solvent: 78 parts by weight of acetone
as §5, §6
Discs of Chinese cabbage leaves (Brassica pekinensis) infested by all stages of the green peach aphid (Myzus persicae) are sprayed with an active ingredient formulation of the desired concentration.
After 6 days, efficacy in % is determined. 100% means that all the aphids have been killed; 0% means that none of the aphids have been killed.

Tetranychus urticae = Tetranychus urticae - spray test, OP-resistant; type: in vivo; conditions: bean leaf discs, after 6 days
Method: as §4, §5, §6
Discs of bean leaves (Phaseolus vulgaris) infested by all stages of the greenhouse red spider mite (Tetranychus urticae) are sprayed with an active ingredient formulation of the desired concentration.
After 6 days, efficacy in % is determined 100% means that all the spider mites have been killed; 0% means that none of the spider mites have been killed.

[3] = system: Boophilus microplus Parkhurst strain, SP-resistant; assay: Boophilus microplus - dip test; type: in vivo; conditions: 100 ppm, adult engorged female cattle ticks, after 7 days
Method: Test animals: cattle ticks (Boophilus microplus) Parkhurst strain, SP-resistant
as §1
10 mg of active ingredient are dissolved in 0.5 ml of dimethyl sulphoxide. For the purpose of producing a suitable formulation, the active ingredient solution is diluted with water to the concentration desired in each case.
This active ingredient formulation is pipetted into tubes. 8-10 adult engorged female cattle ticks (Boophilus microplus) are transferred into a further tube with holes. The tube is immersed into the active ingredient formulation, and all the ticks are completely wetted. After the liquid has run out, the ticks are transferred on filter discs into plastic dishes and stored in a climate-controlled room.
as §2

Amblyomma hebraeum = assay: Amblyomma hebaraeum - test (tick nymphs, immersion); type: in vivo; conditions: 100 ppm, tick nymphs immersed one minute, after 42 days
Method: as §1, §3
Tick nymphs (Amblyomma hebraeum) are placed into perforated plastic beakers and immersed in the desired concentration for one minute. The ticks are transferred on filter paper into a Petri dish and stored in a climate-controlled cabinet.
After 42 days, the kill in % is determined 100% means that all of the ticks have been killed; 0% means that none of the ticks have been killed.

Rhipicephalus sanguineus = Rhipicephalus sanguineus - in vitro contact tests with adult brown dog ticks; type: in vivo; conditions: 5 μg/cm^2, adult dog ticks, after 48 h
Method: (§7) For the coating of the test tubes, 9 mg of active ingredient are first dissolved in 1 ml of acetone p.a. and then diluted to the desired concentration with acetone p.a. 250 μl of the solution are distributed homogeneously on the inner walls and base of a 25 ml test tube by turning and rocking on an orbital shaker (rocking rotation at 30 rpm for 2 h). With 900 ppm active ingredient solution and internal surface 44.7 cm^2, given homogeneous distribution, an area-based dose of 5 μg/cm^2 is achieved.
After the solvent has evaporated off, the tubes are populated with 5-10 adult dog ticks (Rhipicephalus sanguineus), sealed with a perforated plastic lid and incubated in a horizontal position in the dark at room temperature and ambient humidity. After 48 h, efficacy is determined To this end, the ticks are knocked to the floor of the tube and incubated on a hotplate at 45-50° C. for not more than 5 min Ticks which remain motionless on the floor or move in such an uncoordinated manner that they are unable to deliberately avoid the heat by climbing upwards are considered to be dead or moribund.
An efficacy of 100% means that all the ticks were dead or moribund. 0% efficacy means that none of the ticks had been harmed.

Ctenocephalides felis [4] = assay: Ctenocephalides felis - in vitro contact tests with adult cat fleas; type: in vivo; conditions: 5 μg/cm^2, adult cat fleas, after 48 h
Method: as §7, with “surface area” for “surface”
After the solvent has evaporated off, the tubes are populated with 5-10 adult cat fleas (Ctenocephalides felis), sealed with a perforated plastic lid and incubated in a horizontal position at room temperature and ambient humidity. After 48 h, efficacy is determined. To this end, the test tubes are stood upright and the fleas are knocked to the base of the tube. Fleas which remain motionless at the base or move in an uncoordinated manner are considered to be dead or moribund.
100% efficacy means that all the fleas were dead or moribund. 0% efficacy means that no fleas were harmed.

[5] = system: Anopheles funestus strain FUMOZ-R; assay: Anopheles test (ANPHFU surface treatment); type: in vivo; conditions: 20 mg/m^2, glazed tile, exposure 30 minutes, 24 hours after contact
Method: Solvent: acetone+2000 ppm rapeseed oil methyl ester (RME)
To produce an appropriate active ingredient formulation, the active ingredient is dissolved in the solvent (2 mg/ml). The active ingredient formulation is pipetted onto a glazed tile and, after it has dried off, adult mosquitoes of the species Anopheles funestus strain FUMOZ-R (Hunt et al., Med Vet Entomol. 2005 September; 19(3):271-5) are placed onto the treated tile. The exposure time is 30 minutes.
24 hours after contact with the treated surface, mortality in % is determined 100% means that all mosquitoes have been killed; 0% means that none of the mosquitoes have been killed.

SMILES | logP [1] | efficacy (kill in %) (Ctenocephalides felis [2]) [%] | efficacy (no fertile eggs laid) (Boophilus microplus) [%] | efficacy (kill in %) (Lucilia cuprina) [%] | efficacy (caterpillars killed) (Spodoptera frugiperda; 100 g/ha) [%] | efficacy (beetle larvae killed) (Phaedon cochleariae; 100 g/ha) [%] | efficacy (kill in %) (Musca domestica) [%] | efficacy (aphids killed) (Myzus persicae) [%] | efficacy (spider mites killed) (Tetranychus urticae; 500 g/ha) [%] | efficacy (no fertile eggs laid) [3] [%] | efficacy (caterpillars killed) (Spodoptera frugiperda; 500 g/ha) [%] | efficacy (beetle larvae killed) (Phaedon cochleariae; 500 g/ha) [%] | efficacy (kill in %) (Amblyomma hebraeum) [%] | efficacy (dead or moribund) (Rhipicephalus sanguineus) [%] | efficacy (spider mites killed) (Tetranychus urticae; 100 g/ha) [%] | efficacy (dead or moribund) (Ctenocephalides felis [4]) [%] | efficacy (mortality in %) [5]
Cc1cc(C(F)(C(F)(F)F)C(F)(F)F)cc(C)c1-c1cn(-c2ccc(Cl)c(C(=O)NCC(F)(F)F)c2)nn1 [I-T48-5] | 4.5 | 100 | 100 | 100 | 100 | 100 | 100 |  |  |  |  |  |  |  |  |  | 
Cc1cc(C(F)(C(F)(F)F)C(F)(F)F)cc(C)c1-c1cn(-c2cnc(Cl)c(C(=O)NC3CC3)c2)nn1 [I-T48-7] |  | 100 | 100 | 100 |  |  | 100 | 100 | 100 | 100 | 100 | 100 | 100 | 100 |  |  | 
Cc1cc(C(F)(C(F)(F)F)C(F)(F)F)cc(C)c1-c1cn(-c2ccc(Cl)c(C(=O)NC3CSC3)c2)nn1 [I-T48-6] | 4.5 | 100 | 100 | 100 | 100 | 100 | 100 |  |  |  |  |  |  |  | 100 |  | 
O=C(NC1CC1)c1cc(-n2cc(-c3c(Cl)cc(C(F)(C(F)(F)F)C(F)(F)F)cc3Cl)nn2)ccc1Cl [I-T48-3] | 4.3 | 100 | 100 | 100 | 100 | 100 | 100 |  |  | 90 |  |  | 90 | 100 | 100 | 100 | 
Cc1cc(C(F)(C(F)(F)F)C(F)(F)F)cc(C)c1-c1cn(-c2cnc(Cl)c(C(=O)NC3(C#N)CC3)c2)nn1 [I-T48-8] |  | 100 | 100 |  |  |  |  | 100 | 100 | 100 | 100 | 100 | 100 |  |  |  | 
N#CC1(NC(=O)c2cc(-n3cc(-c4c(Cl)cc(C(F)(C(F)(F)F)C(F)(F)F)cc4Cl)nn3)ccc2Cl)CC1 [I-T48-4] | 4.2 | 100 | 100 | 100 | 100 | 100 | 100 |  |  |  |  |  |  | 100 | 100 | 100 | 90-100%
